Molecular target: Substance-P receptor (Rattus norvegicus, UniProt P14600)
Test: ChEBML_1632341
Procedure: Displacement of [Leu-3,4,5-3H(N)]-Substance P from NK1 receptor in rat brain homogenate measured after 60 mins by microbeta scintillation counting analysis

Substance-P receptor, sequence (P14600 whole entry): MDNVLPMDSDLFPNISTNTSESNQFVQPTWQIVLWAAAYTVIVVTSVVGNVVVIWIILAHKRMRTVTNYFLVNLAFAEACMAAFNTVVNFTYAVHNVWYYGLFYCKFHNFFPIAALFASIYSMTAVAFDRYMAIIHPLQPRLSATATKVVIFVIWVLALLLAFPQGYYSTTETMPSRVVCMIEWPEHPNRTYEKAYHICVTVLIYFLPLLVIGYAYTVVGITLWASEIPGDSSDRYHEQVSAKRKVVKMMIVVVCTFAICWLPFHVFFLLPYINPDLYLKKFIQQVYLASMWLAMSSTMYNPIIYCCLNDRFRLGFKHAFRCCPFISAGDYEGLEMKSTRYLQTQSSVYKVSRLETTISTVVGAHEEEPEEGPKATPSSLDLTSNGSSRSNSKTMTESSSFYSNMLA

**Q.** For C[C@@H](NC(=O)[C@@H](N)Cc1ccc(O)cc1)C(=O)NCC(=O)N[C@@H](Cc1ccccc1)C(=O)NN=Cc1cc(C(F)(F)F)cc(C(F)(F)F)c1, which IC50 is on record?
**A.** 4.2 nM

Source: BindingDB's records for doi:10.1021/acsmedchemlett.6b00381 (Mossakowski Medical Research Centre Polish Academy of …, 2017)
